In patent US10995091B2 (Proximagen, LLC, priority 2010, dated 2021) one finds Ki data, which are given here for 32 molecules.

SMILES strings stand for the structures.

For the assay, the target named is T1, Human CXCR4 transfected HEK293 cells (Homo sapiens, UniProt P61073).
T1 construct: expressed in transfected cells; host or cells: HEK293
T1 sequence (P61073 whole entry): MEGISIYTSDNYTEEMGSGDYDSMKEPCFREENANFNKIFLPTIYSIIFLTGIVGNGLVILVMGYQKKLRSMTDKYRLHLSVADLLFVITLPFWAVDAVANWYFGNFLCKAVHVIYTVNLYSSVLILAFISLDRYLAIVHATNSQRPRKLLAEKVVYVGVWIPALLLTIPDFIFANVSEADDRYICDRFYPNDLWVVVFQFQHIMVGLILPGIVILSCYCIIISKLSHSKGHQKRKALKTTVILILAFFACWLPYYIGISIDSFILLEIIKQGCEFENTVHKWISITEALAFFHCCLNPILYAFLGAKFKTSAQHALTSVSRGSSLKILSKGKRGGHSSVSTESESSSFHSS
Kind of assay: CXCR4 functional calcium assay (calcium flux FLIPR, antagonism of SDF1 response). The class given is cell-based. The note with it: CXCR4 functional activity, antagonism of SDF1 (EC50 concentration), read-out: CXCR4 fKi. Summed up: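 Dose-dependent antagonism of the SDF1 response was read by FLIPR as Fluo-4 calcium signal (2 μM dye) in CXCR4-expressing human HEK293 cells, in HBSS with probenecid, BSA and HEPES at pH 7.4 and 37° C. Test compound was given before an EC50-level SDF1 challenge. Curves were then fitted.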
Consider `O=C(NCC1CC1)c1cccc(N2CCCN(C3CCN(C4CCCC4)CC3)CC2)n1` [Example 72, 6-[4-(1-Cyclopentylpiperidin-4-yl)-1,4-diazepan-1-yl]-N-(cyclopropylmethyl)pyridine-2-carboxamide], for which the Ki is 20 to 100 nM. Turning to `O=C(NCC1CC1)c1cccc(N2CCCN(C3CCN(C4CCCC4F)CC3)CC2)n1` (centres unmarked) [Example 73, N-(Cyclopropylmethyl)-6-{4-[1-(2-fluorocyclopentyl)piperidin-4-yl]-1,4-diazepan-1-yl}pyridine-2-carboxamide], the Ki was 20 to 100 nM. Consider `C[C@H](c1ccccc1)N1CCC(N2CCCN(c3cccc(C(=O)NCC4CC4)n3)CC2)CC1` [Example 74, N-(Cyclopropylmethyl)-6-(4-{1-[(1R)-1-phenylethyl]piperidin-4-yl}-1,4-diazepan-1-yl)pyridine-2-carboxamide], for which the Ki was in the range of 100 to 500 nM. For `C[C@H](c1ccc(F)cc1)N1CCC(N2CCCN(c3cccc(C(=O)NCC4CC4)n3)CC2)CC1` [Example 75, N-(Cyclopropylmethyl)-6-(4-{1-[(1R)-1-(4-fluorophenyl)ethyl]piperidin-4-yl}-1,4-diazepan-1-yl)pyridine-2-carboxamide] the value was 100 to 500 nM. For `O=C(NCC1CC1)c1cccc(N2CCCN(C3CCN([C@@H]4CCc5ccccc54)CC3)CC2)n1` [Example 76, N-(Cyclopropylmethyl)-6-(4-{1-[(1R)-2,3-dihydro-1H-inden-1-yl]piperidin-4-yl}-1,4-diazepan-1-yl)pyridine-2-carboxamide] the value was 20 to 100 nM. Under `O=C(NCC1CC1)c1cccc(N2CCCN(C3CCN([C@H]4CCc5ccccc54)CC3)CC2)n1` [Example 77, N-(Cyclopropylmethyl)-6-(4-{1-[(1S)-2,3-dihydro-1H-inden-1-yl]piperidin-4-yl}-1,4-diazepan-1-yl)pyridine-2-carboxamide] stands 20 to 100 nM; under `CC[C@@H](C)N1CCC(N2CCCN(c3cccc(C(=O)Nc4ccncc4)n3)CC2)CC1` [Example 78, 6-(4-{1-[(2R)-Butan-2-yl]piperidin-4-yl}-1,4-diazepan-1-yl)-N-(pyridine-4-yl)pyridine-2-carboxamide], less than 20 nM. Take `CC[C@H](C)N1CCC(N2CCCN(c3cccc(C(=O)Nc4ccncc4)n3)CC2)CC1` [Example 79, 6-(4-{1-[(2S)-Butan-2-yl]piperidin-4-yl}-1,4-diazepan-1-yl)-N-(pyridine-4-yl)pyridine-2-carboxamide]: the Ki was less than 20 nM. Regarding `CC(C)(C)N1CCC(N2CCCN(c3cccc(C(=O)Nc4ccncc4)n3)CC2)CC1` [Example 80, 6-[4-(1-tert-Butylpiperidin-4-yl)-1,4-diazepan-1-yl]-N-(pyridine-4-yl)pyridine-2-carboxamide], the Ki was less than 20 nM. Under `C[C@@H](N1CCC(N2CCCN(c3cccc(C(=O)Nc4ccncc4)n3)CC2)CC1)C(F)(F)F` [Example 81, N-(Pyridin-4-yl)-6-(4-{1-[(2R)-1,1,1-trifluoropropan-2-yl]piperidin-4-yl}-1,4-diazepan-1-yl)pyridine-2-carboxamide] stands less than 20 nM; under `C[C@H](N1CCC(N2CCCN(c3cccc(C(=O)Nc4ccncc4)n3)CC2)CC1)C(F)(F)F` [Example 82, N-(Pyridin-4-yl)-6-(4-{1-[(2S)-1,1,1-trifluoropropan-2-yl]piperidin-4-yl}-1,4-diazepan-1-yl)pyridine-2-carboxamide], less than 20 nM. For `O=C(Nc1ccncc1)c1cccc(N2CCCN(C3CCN(C4CCCC4)CC3)CC2)n1` [Example 83, 6-[4-(1-Cyclopentylpiperidin-4-yl)-1,4-diazepan-1-yl]-N-(pyridine-4-yl)pyridine-2-carboxamide] the value was less than 20 nM; for `Cc1cc(NC(=O)c2cccc(N3CCCN(C4CCN(Cc5ccccc5Cl)CC4)CC3)n2)ccn1` [Example 84, 6-(4-{1-[(2-Chlorophenyl)methyl]piperidin-4-yl}-1,4-diazepan-1-yl)-N-(2-methylpyridine-4-yl)pyridine-2-carboxamide], less than 20 nM; for `Cc1cc(NC(=O)c2cccc(N3CCCN(C4CCN(Cc5ccccc5Cl)CC4)CC3)n2)cc(C)n1` [Example 85, 6-(4-{1-[(2-Chlorophenyl)methyl]piperidin-4-yl}-1,4-diazepan-1-yl)-N-(2,6-dimethylpyridin-4-yl)pyridine-2-carboxamide], 20 to 100 nM. For the molecule `Cc1cc(NC(=O)c2cccc(N3CCCN(C4CCN(C(C)C)CC4)CC3)n2)ccn1` [Example 86, N-(2-Methylpyridin-4-yl)-6-{4-[1-(propan-2-yl)piperidin-4-yl]-1,4-diazepan-1-yl}pyridine-2-carboxamide], the Ki is less than 20 nM. Turning to `Cc1cc(NC(=O)c2cccc(N3CCCN(C4CCN(C(C)C)CC4)CC3)n2)cc(C)n1` [Example 87, N-(2,6-Dimethylpyridin-4-yl)-6-{4-[1-(propan-2-yl)piperidin-4-yl]-1,4-diazepan-1-yl}pyridine-2-carboxamide], the Ki is less than 20 nM.

Take `Cc1cnccc1NC(=O)c1cccc(N2CCCN(C3CCN(C(C)C)CC3)CC2)n1` [Example 88, N-(3-Methylpyridin-4-yl)-6-{4-[1-(propan-2-yl)piperidin-4-yl]-1,4-diazepan-1-yl}pyridine-2-carboxamide]: the Ki is less than 20 nM. For the molecule `C[C@H](N1CCC(N2CCCN(c3cccc(C(=O)NCc4cccnc4)n3)CC2)CC1)C(F)(F)F` [Example 89, N-(Pyridin-3-ylmethyl)-6-(4-{1-[(2S)-1,1,1-trifluoropropan-2-yl]piperidin-4-yl}-1,4-diazepan-1-yl)pyridine-2-carboxamide], the Ki lay in the range of 20 to 100 nM. For `CC(CC(F)(F)F)N1CCC(N2CCCN(c3cccc(C(=O)NCc4cccnc4)n3)CC2)CC1` (centres unmarked) [Example 90, N-(Pyridin-3-ylmethyl)-6-{4-[1-(4,4,4-trifluorobutan-2-yl)piperidin-4-yl]-1,4-diazepan-1-yl}pyridine-2-carboxamide] the value was 20 to 100 nM; for `CC(C)(N1CCC(N2CCCN(c3cccc(C(=O)NCc4cccnc4)n3)CC2)CC1)C(F)(F)F` [Example 91, N-(Pyridin-3-ylmethyl)-6-{4-[1-(1,1,1-trifluoro-2-methylpropan-2-yl)piperidin-4-yl]-1,4-diazepan-1-yl}pyridine-2-carboxamide], 100 to 500 nM.

With `C[C@H](c1ccccc1)N1CCC(N2CCCN(c3cccc(C(=O)NCc4cccnc4)n3)CC2)CC1` [Example 92, 6-(4-{1-[(1R)-1-Phenylethyl]piperidin-4-yl}-1,4-diazepan-1-yl)-N-(pyridine-3-ylmethyl)pyridine-2-carboxamide], the Ki fell in the range of 20 to 100 nM.

Turning to `CCCCNC(=O)c1cccc(N2CCCN(C3CCN([C@@H](C)C(F)(F)F)CC3)CC2)n1` [Example 93, N-Butyl-6-(4-{1-[(2S)-1,1,1-trifluoropropan-2-yl]piperidin-4-yl}-1,4-diazepan-1-yl)pyridine-2-carboxamide], the Ki was 20 to 100 nM. Turning to `C[C@H](N1CCC(N2CCCN(c3cccc(C(=O)NCc4nccs4)n3)CC2)CC1)C(F)(F)F` [Example 94, N-(1,3-Thiazol-2-ylmethyl)-6-(4-{1-[(2S)-1,1,1-trifluoropropan-2-yl]piperidin-4-yl}-1,4-diazepan-1-yl)pyridine-2-carboxamide], the Ki was 100 to 500 nM. As for `CC(C)N1CCC(N2CCCN(c3cccc(-c4cc5ccccc5n4C)n3)CC2)CC1` [Example 95, 1-Methyl-2-(6-{4-[1-(propan-2-yl)piperidin-4-yl]-1,4-diazepan-1-yl}pyridine-2-yl)-1H-indole], the Ki lay within 100 to 500 nM. For the molecule `CC(C)N1CCC(N2CCCN(c3cccc(-c4cc5ncccc5[nH]4)n3)CC2)CC1` [Example 96, 1-[1-(Propan-2-yl)piperidin-4-yl]-4-(6-{1H-pyrrolo[3,2-b]pyridine-2-yl}pyridine-2-yl)-1,4-diazepane], the Ki lay within 20 to 100 nM. For the molecule `CC(C)N1CCC(N2CCCN(c3cccc(-c4cc5cnccc5[nH]4)n3)CC2)CC1` [Example 97, 1-[1-(Propan-2-yl)piperidin-4-yl]-4-(6-{1H-pyrrolo[3,2-c]pyridine-2-yl}pyridine-2-yl)-1,4-diazepane], the Ki lay within 100 to 500 nM.

Regarding `CC(C)N1CCC(N2CCCN(c3cccc(-c4cc5ccncc5[nH]4)n3)CC2)CC1` [Example 98, 1-[1-(Propan-2-yl)piperidin-4-yl]-4-(6-{1H-pyrrolo[2,3-c]pyridine-2-yl}pyridine-2-yl)-1,4-diazepane], the Ki is 20 to 100 nM. Under `CC(C)N1CCC(N2CCCN(c3cccc(-c4cc5cccnc5[nH]4)n3)CC2)CC1` [Example 99, 1-[1-(Propan-2-yl)piperidin-4-yl]-4-(6-{1H-pyrrolo[2,3-b]pyridine-2-yl}pyridine-2-yl)-1,4-diazepane] stands 20 to 100 nM; under `CC(C)N1CCC(N2CCCN(c3cccc(-c4cc5ccccc5[nH]4)n3)CC2)CC1` [Example 100, 2-(6-{4-[1-(Propan-2-yl)piperidin-4-yl]-1,4-diazepan-1-yl}pyridine-2-yl)-1H-indole], 20 to 100 nM; under `CC(C)N1CCC(N2CCCN(c3cccc(-c4c[nH]c5ncccc45)n3)CC2)CC1` [Example 101, 1-[1-(Propan-2-yl)piperidin-4-yl]-4-(6-{1H-pyrrolo[2,3-b]pyridine-3-yl}pyridine-2-yl)-1,4-diazepane], 100 to 500 nM. As to `CC(C)N1CCC(N2CCCN(c3cccc(-c4c[nH]c5ccccc45)n3)CC2)CC1` [Example 102, 3-(6-{4-[1-(Propan-2-yl)piperidin-4-yl]-1,4-diazepan-1-yl}pyridine-2-yl)-1H-indole], the Ki fell in the range of 500 to 1000 nM. For `CC(C)N1CCC(N2CCCN(c3cccc(-c4cc5ccc(C#N)cc5[nH]4)n3)CC2)CC1` [Example 103, 2-(6-{4-[1-(Propan-2-yl)piperidin-4-yl]-1,4-diazepan-1-yl}pyridine-2-yl)-1H-indole-6-carbonitrile], the Ki fell in the range of 100 to 500 nM.
